This note sets out measurements from PubChem BioAssay AID1902 (Broad Institute, 2009).

By EC50 is commonly meant the concentration giving half of the maximal effect.

Each structure is given as a SMILES string. Calls of active or inactive are those of the source.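 Rule for the calls: active = EC50 no more than a set limit of log units above the highest dose; inactive = the rest.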

The target of the assay is S. pyogenes SKKanGAS, kanamycin survival, BacTiterGlo, 6 h. In words: SKKanGAS survival reduction under kanamycin, dose response, streptokinase promoter inhibitor project, SKKanGAS strain, luminescence, dose confirmation (AID 1902).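 Note: lower survival reflects blocked streptokinase promoter driving kanamycin resistance gene.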

For the compound `CC(Nc1nc(-c2ccccc2O)nc2ccccc12)c1ccccc1` (stereo not drawn), the EC50 was 8.79 µM.

In the case of `CC1(C)Oc2ccc3ccc(=O)oc3c2/C(=C/NNC(N)=S)C1=O`, the EC50 is 7.51 µM.

Consider `CSc1c(SCc2ccccc2)cnn(Cc2ccccc2)c1=O`, for which the EC50 is 3.95 µM.

For `Cc1ccc(SCC(=O)N2c3ccccc3Sc3ccccc32)cc1`, the EC50 is 3.78 µM.

On to `CC1(C)Cc2nc3sc4c(OCc5ccccc5)ncnc4c3cc2CO1`, for which the EC50 was 4.19 µM.

As to `CC1CC(C)(C)n2c(O)c(N=NC(N)=S)c3cccc1c32` (stereo not drawn), the EC50 was 4.84 µM.

For the compound `Cc1cc(C)nc(SCC(=O)NC2=NN=C(c3ccc(Br)cc3)CS2)n1`, the EC50 was 3.07 µM.

For `CCCOC(=O)c1ccc(Oc2cn[nH]c2-c2ccc(OCC)cc2O)cc1`, the EC50 is 1.37 µM.

Take `CC(C)Cn1c(=O)c(C(=O)Nc2ccncc2)c(O)c2ccccc21`: the EC50 was 4.17 µM.

As for `COc1cc(/C=N/Nc2nc3ccccc3s2)cc([N+](=O)[O-])c1O`, the EC50 is 8.93 µM.

For `O=C(OCc1csc(Nc2ccccc2)n1)c1ccc(Cl)cc1`, the EC50 was 14.3 µM.

As to `CC(C)C(=O)NC(c1ccco1)c1ccc2cccnc2c1O` (stereo not drawn), the EC50 is 2.44 µM.

For the compound `COc1ccc(C(=O)Nc2nnc(-c3ccccc3)o2)cc1OC`, the EC50 is 5.56 µM.

`O=c1c2ccccc2oc2cc(-c3ccc4[nH]ccc4c3)ccc12`: the EC50 is 4.85 µM.

Consider `Cc1cc(C)c(OCC(=O)N2CCN(c3ncc(C(F)(F)F)cc3Cl)CC2)c(C)c1`, for which the EC50 is 6.88 µM.

For `CSc1nc2cc(Oc3cccc(Cl)c3Cl)c(Cl)cc2[nH]1`, the EC50 was 2.93 µM.

Consider `Cc1ccc(Nc2cc(C)nn2-c2nc(C)cc(=O)[nH]2)cc1`, for which the EC50 was less than 0.06 µM.

Take `CCCCSc1ccc2nc(-c3ccc(C#N)cc3)cn2c1`: the EC50 was 7.72 µM.

As for `O=C(Nc1cccc(Cl)c1N1CCCCC1)c1ccc2c(c1)OCCO2`, the EC50 is 10.5 µM.

With `Cc1c(C(=O)NNC(=S)NCc2ccc(Cl)cc2)oc2ccccc12`, the EC50 was 2.17 µM.

`O=C(NNC(=S)NC(=O)c1ccc(Br)cc1)c1cccc([N+](=O)[O-])c1`: the EC50 is 0.892 µM.

`NC(=NCCCCCCN=C(N)/N=C(\N)Nc1ccc(Cl)cc1)/N=C(\N)Nc1ccc(Cl)cc1`: the EC50 was 0.789 µM.

In the case of `Cc1nc2ccccc2c(=O)n1/N=C/c1cc(Br)cc(Br)c1O`, the EC50 is 3.04 µM.

As for `C=CCn1c(NC(=O)c2ccc(C)cc2)nc2ccccc21`, the concentration for a half-maximal effect (EC50) was 9.75 µM.

Regarding `O=C(Nc1nnc(-c2ccccn2)o1)c1cccc(Cl)c1`, the EC50 is 1.66 µM.

Regarding `CCCC(=O)NC(c1ccc2c(c1)OCO2)c1cc(Cl)c2cccnc2c1O` (stereo not drawn), the EC50 is 1.17 µM.

Turning to `Cc1nn(-c2ccccc2)c(C)c1/C=N/NC(=O)c1cc(C23CC4CC(CC(C4)C2)C3)[nH]n1`, the EC50 is 6.98 µM.

Turning to `CCCn1c(NC(=O)c2ccc(Cl)c(S(=O)(=O)N3CCCC3)c2)nc2ccccc21`, the EC50 is 1.67 µM.

`CC(C)c1ccc(OCC(=O)NNC(=S)NC(=O)C2CC2)cc1`: the EC50 was 0.797 µM.

`C=C(C)[C@@H]1CCC2(C(=O)O)CC[C@]3(C)[C@H](CC[C@@H]4[C@@]5(C)CCC(=O)C(C)(C)[C@@H]5CC[C@]43C)[C@@H]12` (stereo partly drawn): the EC50 was 1.85 µM.

As for `CC[n+]1c(/C=C/N(C)c2ccccc2)n(-c2ccccc2)c2ccc(-c3nc4ccccc4s3)cc21`, the EC50 was 3.61 µM.

On to `CCOC(=O)c1cnc(-n2nc(C)cc2C)nc1NC(C)c1ccccc1` (stereo not drawn), for which the EC50 is 2.74 µM.

Consider `Brc1ccc(Nc2ncnc3[nH]ncc23)cc1`, for which the EC50 is 8.45 µM.

As for `Cc1cccc2sc(NNC(=O)c3ccc(S(=O)(=O)N4CCCC(C)C4)cc3)nc12` (stereo not drawn), the EC50 was 0.31 µM.

As for `CCOC(=O)CCC(=O)O[C@H]1[C@H](O[C@@H]2[C@@H](C)[C@H](O[C@H]3C[C@@](C)(OC)[C@@H](O)[C@H](C)O3)[C@@H](C)C(=O)O[C@H](CC)[C@@](C)(O)[C@H](O)[C@@H](C)C(=O)[C@H](C)C[C@@]2(C)O)O[C@H](C)C[C@@H]1N(C)C`, the EC50 was less than 0.06 µM.

Consider `O=C(CSc1nnc(CNC(=O)c2ccccc2)o1)NCCc1ccccc1`, for which the EC50 is > 15 µM (inactive).

Regarding `Cc1ccccc1CN(C)CC(=O)Nc1ccccc1-c1ccccc1`, the EC50 is 3.3 µM.

As to `Cc1n[nH]c(C)c1CCOc1ccc(C(C)C)cc1`, the EC50 is 11.2 µM.

For `CCc1ccc(Nc2n[n+](-c3ccccc3)c(-c3c(Cl)cccc3Cl)s2)cc1`, the EC50 was 6.22 µM.

`CC(C)c1ccc2[nH]c3c(c2c1)CCC/C3=N\NC(=O)c1ccncc1`: the EC50 was 2.43 µM.

As to `C=CC(C)(C)c1c(O)c(CC=C(C)C)c(O)c2c(=O)c3ccc(O)c(O)c3oc12`, the EC50 is 1.8 µM.

As for `C/C(=N\NC(=O)COc1ccccc1-c1ccccc1)c1ccccn1`, the EC50 was 0.667 µM.

On to `CCCC1CC(C(=O)NC(C(C)Cl)C2OC(SC)C(O)C(O)C2O)N(C)C1` (stereo not drawn), for which the EC50 was less than 0.06 µM.

Turning to `CC(C)c1ccc2nc3sc(C(=O)N4CCc5ccccc5C4)c(N)c3cc2c1`, the EC50 was 14.5 µM.

For the compound `Cn1c(=O)c(C(=O)NNC(=O)c2ccccc2Br)c(O)c2ccccc21`, the concentration giving a half-maximal response (EC50) was 7.51 µM.

For the compound `O=C(Nc1nnc(SCc2c(Cl)cccc2Cl)s1)C1CC(=O)N(c2ccc3c(c2)OCCO3)C1` (stereo not drawn), the EC50 is 9.74 µM.

Regarding `Cc1ccc(C(=O)NNC(=S)NC(=O)c2ccccc2)cc1`, the EC50 was 0.955 µM.

For the compound `O=C(NCCS(=O)(=O)N1CCN(c2ccccc2F)CC1)C1CC(=O)N(c2ccc(F)cc2)C1` (stereo not drawn), the EC50 was > 15 µM (inactive).

With `CC(C)N1CCc2c(sc(NC(=O)c3ccc(S(=O)(=O)N(C)CC4CCCO4)cc3)c2C(N)=O)C1` (stereo not drawn), the EC50 is > 15 µM (inactive).

Turning to `COc1ccccc1C(=O)NNC(=O)C(=O)Nc1ccc(C)c(Cl)c1`, the EC50 was 1.65 µM.

Turning to `CCCCCC/C(=N/O)c1ccccn1`, the EC50 is 15.4 µM.

For `O=C(CSc1nc2c(cnn2-c2ccccc2)c(=O)[nH]1)N1N=C(c2cccs2)CC1c1ccc(F)cc1` (stereo not drawn), the EC50 was 1.62 µM.

With `CCOC(=O)c1sc(NC(=O)Nc2ccc(Cl)cc2)cc1C`, the EC50 is 10.1 µM.

Turning to `COc1cccc(-c2nn(-c3ccccc3)cc2C(=O)Nc2nccs2)c1`, the 50% effective concentration (EC50) was 2.98 µM.

Take `Cc1ccc2sc(NNC(=O)c3ccc4c(c3)OCCO4)nc2c1C`: the EC50 was 3.79 µM.

As to `CC(C)=CCc1c(-c2ccc(O)cc2O)oc2c3c(cc(O)c2c1=O)OC(C)(C)C=C3`, the EC50 is 1.23 µM.

Regarding `Cc1ccc2nc(N3C(=O)C(O)=C(C(=O)c4cc5ccccc5o4)C3c3cccs3)sc2c1` (stereo not drawn), the EC50 is 1.22 µM.

As for `O=c1cc(C(F)(F)F)[nH]c2c(C(F)(F)F)cccc12`, the EC50 is 2.34 µM.

Regarding `CC(C)COC(=O)c1cccc2c1-c1ccccc1/C2=N\O`, the EC50 is 4.99 µM.

`O=C(O)c1ccc(N=Nc2c(O)[nH]c3ccc(Br)cc23)cc1`: the EC50 is 2.03 µM.

As to `CC(=O)Nc1nc(NC(=O)/C=C/c2ccccc2)n(-c2ccccc2)n1`, the EC50 was 1.74 µM.

For `O=C(Nc1ncc(Cc2cccc(Cl)c2)s1)c1cccs1`, the EC50 was 3.91 µM.

Take `Cc1[nH]cnc1C(=O)N/N=C/c1ccc([N+](=O)[O-])s1`: the EC50 was 3.73 µM.

Regarding `CCOc1cc(N2CCOCC2)c(OCC)cc1NC(=O)C1=NN(c2cccc(C)c2)C(=O)CC1`, the EC50 is 13.1 µM.

As to `CCC(C)Sc1cccc(-c2nc3ccc(C)cn3c2NCc2ccccc2)c1` (stereo not drawn), the EC50 is 3.24 µM.

For `Cc1cccc(C(=O)Nc2scc(-c3ccc(Br)cc3)c2C(=O)O)c1`, the EC50 was 1.89 µM.

For the compound `NC(=O)c1cc(C(=O)Cc2ccccc2)c[nH]1`, the EC50 was 2.23 µM.

With `CCSc1nnc(NC(=O)c2ccc3ccccc3n2)s1`, the EC50 is 2.53 µM.

Take `CC(Oc1ccc(Cl)cc1Cl)C(=O)Nc1ccc2oc(-c3ccncc3)nc2c1` (stereo not drawn): the EC50 is 6.24 µM.

With `COc1cc(Cl)cc(/C=C/c2ccc3cccc(O)c3n2)c1OC`, the half-maximal effective concentration (EC50) is 0.951 µM.

With `CCOc1ccc(C(=O)NC(=S)N(Cc2ccccc2)Cc2ccccc2)cc1`, the EC50 is 1.39 µM.

Regarding `CC(C)(C)c1nnc(N/N=C/c2cc(Br)ccc2O)n(N)c1=O`, the EC50 is 2.12 µM.

With `CC1(C)S[C@@H]2[C@H](NC(=O)COc3ccccc3)C(=O)N2C1C(=O)OCc1ccccc1` (stereo partly drawn), the 50% effective concentration (EC50) was 1.04 µM.

As to `Cc1cc(Br)c(OCc2ccc(C(=O)N/N=C3\CC4CC=CC34)cc2)c(Br)c1` (stereo not drawn), the half-maximal effective concentration (EC50) was 4 µM.

Consider `Cc1ccc(C)c(-c2cc(C(=O)Nc3sc(C)c(C)c3C(N)=O)c3ccccc3n2)c1`, for which the EC50 was 3.55 µM.

`NS(=O)(=O)c1ccc(N2N=C(c3ccc(Br)cc3)CC2c2ccc(F)cc2)cc1` (stereo not drawn): the EC50 was 2.21 µM.

Regarding `Oc1c(Br)cc(Br)cc1Oc1ccc(Br)cc1Br`, the EC50 is 1.77 µM.

Take `O=C(Nc1ccc(F)cc1)c1nc2c(nnn2Cc2cccc3ccccc23)c(=O)[nH]1`: the EC50 is 2.44 µM.

As to `CC1=NNC(=O)/C1=C\c1cn(-c2ccccc2)nc1-c1ccc(Cl)cc1`, the concentration giving a half-maximal response (EC50) is 5.67 µM.

As for `CCCCCCc1cc2cc(-c3nnc(-c4ccccc4)o3)c(=O)oc2cc1O`, the EC50 was 3.05 µM.

For `COc1ccccc1/C=N\Nc1cc(C)nc(-n2nc(C)cc2C)n1`, the EC50 is 6.26 µM.

Turning to `O=[N+]([O-])c1c(Nc2cccc(O)c2)cc(Cl)c2nonc12`, the EC50 is 6.5 µM.

Take `CC1(C)S[C@@H]2[C@H](NC(=O)Cc3ccccc3)C(=O)N2[C@H]1C(=O)O`: the EC50 was less than 0.06 µM.

Take `CCc1ccc(-c2ccc3nnc(SCC(N)=O)n3n2)cc1`: the 50% effective concentration (EC50) is 1.66 µM.

Take `C=C(C)CNC(=S)NNC(=O)CCn1c2ccc(Cl)cc2c2cc(Cl)ccc21`: the EC50 was 2.31 µM.

On to `CCCCCCCCCCCCCCCC[N+](C)(C)CC`, for which the EC50 is 2.19 µM.

For `O=C(NNC(=O)c1ccccc1OCc1ccc(F)cc1)c1ccccc1O`, the EC50 was 2.5 µM.

For the compound `CN1C(=O)/C(=C/c2ccccc2F)Sc2ccc(C(=O)N3CCCC3)cc21`, the EC50 was 1.06 µM.

Consider `O=C(/C=C/c1ccccc1)NC(=S)NNC(=O)c1ccco1`, for which the EC50 is 2.76 µM.

As for `O=C(NC(=S)N1CCN(c2ccc(Cl)cc2[N+](=O)[O-])CC1)c1cccs1`, the EC50 is 2.75 µM.

For the compound `CCOC(=O)c1cnc(-n2nc(C)cc2C)nc1NC1CCCCC1`, the EC50 is less than 0.06 µM.

As for `C=C1c2cccc(O)c2C(O)=C2C(=O)[C@]3(O)C(O)=C(C(N)=O)C(=O)[C@@H](N(C)C)[C@@H]3[C@@H](O)[C@H]12`, the EC50 was 0.093 µM.

Regarding `Cc1nn(-c2ccccc2)c(C)c1/C=N/NC(=O)c1cc(-c2ccc(Cl)s2)[nH]n1`, the EC50 was 5.8 µM.
